{"source": "patent US20070203225A1", "about": "“METHOD OF INCREASING ENDOGENOUS ADIPONECTIN PRODUCTION AND LEPTIN PRODUCTION” (priority 2001, published 2007)", "origin": "cited, not measured here", "conditions_in_all_cases": "metformin 1.0 mM with 0.16 nM insulin, n=18; cited from earlier work", "key": {"isolated rat adipocytes [1]": {"tested_on": "isolated rat adipocytes"}, "isolated rat adipocytes [2]": {"tested_on": "isolated rat adipocytes", "remark": "listed apart in the source"}, "isolated rat adipocytes [3]": {"tested_on": "isolated rat adipocytes", "remark": "listed apart in the source"}}, "data": [{"smiles": "CN(C)C(=N)N=C(N)N", "note": "[metformin]", "values": [{"measurement": "effect on glucose utilization (in words)", "setting": "isolated rat adipocytes [1]", "result": "increases"}, {"measurement": "effect on proportion of glucose metabolized to lactate (in words)", "setting": "isolated rat adipocytes [2]", "result": "increases"}, {"measurement": "effect on leptin secretion (in words)", "setting": "isolated rat adipocytes [3]", "result": "inhibits"}]}]}
